Experimental data reported in patent US20080004329A1, “Pharmaceutical compositions of ropinirole and methods of use thereof” (priority 2006, published 2008).

Tests used:
guinea pigs = experiment: Skin sensitization, induction and challenge; type: in vivo; conditions: guinea pigs induced (with and without Freund's Complete Adjuvant) and challenged with 5% ropinirole HCl
[1] = In vitro permeation, Franz cells, cadaver skin finite dose technique (Example 1); type: in vitro ADME, human
Description: The in vitro human cadaver skin model has proven to be a valuable tool for the study of percutaneous absorption and the determination of topically applied drugs. The model uses human cadaver skin mounted in specially designed diffusion cells that allow the skin to be maintained at a temperature and humidity that match typical in vivo conditions (Franz, T. J., “Percutaneous absorption: on the relevance of in vitro data,” J. Invest Dermatol 64:190-195 (1975)). A finite dose (for example: 4-7 mg/cm^2) of formulation is applied to the outer surface of the skin and drug absorption is measured by monitoring its rate of appearance in the receptor solution bathing the inner surface of the skin. Data defining total absorption, rate of absorption, as well as skin content can be accurately determined in this model. The method has historic precedent for accurately predicting in vivo percutaneous absorption kinetics (Franz, T. J., “The finite dose technique as a valid in vitro model for the study of percutaneous absorption in man,” In: Skin: Drug Application and Evaluation of Environmental Hazards, Current Problems in Dermatology, vol. 7, G. Simon, Z. Paster, M Klingberg, M. Kaye (Eds), Basel, Switzerland, S. Karger, pages 58-68 (1978)).
Percutaneous absorption was measured using the in vitro cadaver skin finite dose technique. Cryo-preserved, human cadaver trunk skin was obtained from a skin bank and stored in water-impermeable plastic bags at <−70° C. until used.
Prior to the experiment, skin was removed from the bag, placed in approximately 37° C. water for five minutes, and then cut into sections large enough to fit on 1 cm^2 Franz Cells (Crown Glass Co., Somerville, N.J.). Briefly, skin samples were prepared as follows. A small volume of phosphate buffered saline (PBS) was used to cover the bottom of the Petri dishes. Skin disks generally depleted of fat layers were placed in the Petri dishes for hydration. A Stadie-Riggs manual tissue microtome was used for slicing excised skin samples. Approximately 2 mL of PBS was placed into the middle cavity of the microtome as slicing lubricant. Skin disks were placed, dermal side up, into the middle cavity of the microtome. Filter paper was soaked with PBS, inserted in the cavity just above the skin disk. The filter paper prevented the dermis from sliding onto the top of the cutting block and helped to insure more precise cutting. When all three blades of the microtome were assembled, the microtome was turned into the upright position. Using a regular and careful sawing motion the skin tissue was sliced in cross-section. The skin tissue slice was removed with the tweezers and placed in the Petri dish for hydration. Each skin slice was wrapped in Parafilm® (Pechiney Plastic Packaging, Inc., Chicago, Ill.) laboratory film and placed in water-impermeable plastic bags. Skin samples were identified by the donor and the provider code. If further storage was necessary, the skin slices were stored in the freezer at −20° C. until further use.
The epidermal cell (chimney) was left open to ambient laboratory conditions. The dermal cell was filled with receptor solution. Receptor solution for in vitro skin permeations was typically an isotonic saline at physiological pH. The receptor solution may also contain a drug solubilizer, for example, to increase lipophilic drug solubility in the receptor phase. […]

[2] = water at 20° C.; cited from earlier work
[3] = human
Description: In vitro data can be extrapolated to in vivo conditions in order to evaluate the gel dose for bioequivalence to ropinirole oral absorption. […] Therefore, an intermediate oral dose of 6 mg/day with BA=50% delivers a systemic dose of 3 mg/day. […] This corresponds to a daily dose of 9.5 mg ropinirole HCl (equivalent to 8.3 mg free base).
Based on these pharmacokinetic parameters, the daily input rate can be estimated using the following equation: Ka=CL×Cp, where Ka is the daily input rate (absorption rate), CL the drug plasma clearance, and Cp the plasma concentration.
Scaled to the clinical daily input rate, the required skin surface can be determined using the following equation: S=Ka/JSS, wherein S is the application skin surface area, and JSS is the in vitro steady-state drug flux.
Alternatively, the gel amount could be increased by 3.7 times (1 g instead of 0.3 g), and be applied to a 3.7 times larger skin area (185 cm instead of 50 cm^2).
This corresponds to a daily dose of 15 mg ropinirole HCl (equivalent to 13 mg free base).

[4] = cited from earlier work
[5] = Titration with NaOH for the experimental ionization profile in a hydroalcoholic base; type: physicochemical; conditions: hydroalcoholic vehicle (ethanol 45%, propylene glycol 20%, water 25.58%), not gellified; read-out: apparent pKa from the experimental ionization profile
Text: The following formulation was used for titration to determine the experimental ionization profile of ropinirole in a hydroalcoholic base: Ropinirole hydrochloride* 3.42% w/w, myristyl alcohol 1.00% w/w, diethylene glycol monoethylether 5.00% w/w, propylene glycol 20.00% w/w, absolute ethanol 45.00% w/w, and purified water 25.58% w/w (total 100; * ropinirole HCl 3.42% (MW=296.84) corresponds to ropinirole free base 3% (MW=260.38), ratio 1.14). The formulation was not gellified.
The ropinirole HC1 solution was titrated with NaOH 0.1 M solution. The solvent was the same as the formulation, in order to keep a constant composition. NaOH was chosen so as to limit dilution of the titrated formulation; but no dilution correction was made. The formulation was titrated by 0.5-1 mL increments where the pH change was small. Increments were reduced to 0.1 mL near the equivalence point. The pH was monitored with a glass electrode (Mettler Toledo InLab 432, Mettler-Toledo, Inc., Columbus, Ohio), and recorded with a Mettler Toledo MP. 230 pH meter (Mettler-Toledo, Inc., Columbus, Ohio).
Based on the titration curve, the ionization rate [BH] was calculated according to Henderson-Hasselbalch equation for weak base: […]

[6] = EtOH(45)/Water(40)/PG(10), 5% drug

| SMILES | sensitization category (guinea pigs) | skin permeation characteristics [1, 6] | solubility in water [2] | peak flux ([1]; EtOH(45)/Water(40)/PG(10), 5% drug, pH 9.5-10.0) | ropinirole remained in the epidermis ([1]; after 48 hours) | Bioavailability in the receptor chamber fluid ([1]; percent dose recovered in receptor fluid) | Ka, daily input rate (absorption rate), Ka=CL×Cp [3] | Body clearance ([4]; REQUIP Prescribing Information) | maximum plasma levels (Cmax) ([4]; repeated oral administration, 6 mg/day in 3 divided doses, steady state (Taylor et al.)) | pKa [5] |
| --- | --- | --- | --- | --- | --- | --- | --- | --- | --- | --- |
| CCCN(CCC)CCc1cccc2c1CC(=O)N2.Cl [Ropinirole hydrochloride, 4-[2-(dipropylamino)-ethyl]-1,3-dihydro-2H-indol-2-one monohydrochloride] | mild sensitizer | did not permeate well | 133 mg/mL |  |  |  |  |  |  |  |
| CCCN(CCC)CCc1cccc2c1CC(=O)N2 [ropinirole free base] |  | good permeation characteristics |  | 3.5 μg/cm^2/hr | Approximately 20% | about 40% |  |  |  |  |
| CCCN(CCC)CCc1cccc2c1CC(=O)N2 [ropinirole] |  |  |  |  |  |  | 347.8 µg/h | about 47 L/h | 7.4 ng/mL | 8 |
